Assays:
[1] = tested on: HeLa cells; assay: GFP-NLS protein transduction assay (flow cytometry: Pos cells %, viability %, relative fluorescence intensity; microscopy); details: for Relative fluorescence intensity (FL1-A) (n = 3): Table 10.3, Protocol C
[2] = tested on: Jurkat cells; assay: GFP-NLS transduction in different adherent and suspension cells (flow cytometry, Pos cells % and viability %); assay type: cell-based, Human; details: Protocol C, 5 μM shuttle, 5 μM GFP-NLS, 15 seconds
Method: (§1) The ability of the shuttle agent His-CM18-PTD4 to deliver GFP-NLS to the nuclei of different adherent and suspension cells using Protocols B (adherent cells) or C (suspension cells) as described in Example 9.1 was examined. The cell lines tested included: HeLa, Balb3T3, HEK 293T, CHO, NIH3T3, Myoblasts, Jurkat, THP-1, CA46, and HT2 cells, which were cultured as described in Example 1. GFP-NLS (5 μM; see Example 5.1) was co-incubated with 35 μM of His-CM18-PTD4 and exposed to adherent cells for 10 seconds (Protocol B), or was co-incubated with 5 μM of His-CM18-PTD4 and exposed to suspension cells for 15 seconds (Protocol C). […] “Pos cells (%)” is the mean percentages of all cells that emanate a GFP signal.

[3] = tested on: HEK 293T cells; assay: as above; assay type: cell-based, Human; details: Protocol B, 35 μM shuttle, 5 μM GFP-NLS, 10 seconds
Method: (§2) The media in wells was removed, cells were washed once with PBS previously warmed at 37° C., and the shuttle agent/cargo mixture was then added to cover all cells for the desired length of time. The shuttle agent/cargo mixture in wells was removed, the cells were washed once with PBS, and fresh complete medium was added. Before analysis, the cells were washed once with PBS and fresh complete medium was added.
as §1

[4] = tested on: Myoblasts; assay: as above; assay type: cell-based, Human; details: Protocol B, 35 μM shuttle, 5 μM GFP-NLS, 10 seconds
Method: as §2, §1

[5] = tested on: Balb3T3 cells; assay: as above; assay type: cell-based; details: Protocol B, 35 μM shuttle, 5 μM GFP-NLS, 10 seconds
Method: as §2, §1

[6] = tested on: NIH3T3 cells; assay: as above; assay type: cell-based; details: Protocol B, 35 μM shuttle, 5 μM GFP-NLS, 10 seconds
Method: as §2, §1

[7] = tested on: CHO cells; assay: as above; assay type: cell-based, Chinese hamster; details: Protocol B, 35 μM shuttle, 5 μM GFP-NLS, 10 seconds
Method: as §2, §1

[8] = tested on: HeLa cells; assay: Plasmid DNA (pEGFP-C1) transfection by peptides (% cells with GFP signal, cell viability); details: DNA transfection in HeLa cells using peptides; pEGFP-C1 plasmid
[9] = tested on: PPIB gene; assay: T7E1 DNA cleavage assay after CRISPR/Cas9-NLS delivery, HeLa cells; assay type: cell-based, Human; details: shuttle 10 μM; Cas9-NLS 25 nM; HeLa cells 16 h, medium without serum
From the text: The T7 endonuclease I (T7E1) can be used to detect on-target CRISPR/Cas genome editing events in cultured cells. As an overview, genomic DNA from target cells is amplified by PCR. The PCR products are then denatured and reannealed to allow heteroduplex formation between wild-type DNA and CRISPR/Cas-mutated DNA. T7E1, which recognizes and cleaves mismatched DNA, is used to digest the heteroduplexes. The resulting cleaved and full-length PCR products are visualized by gel electrophoresis.
The T7E1 assay was performed with the Edit-R™ Synthetic crRNA Positive Controls (Dharmacon #U-007000-05) and the T7 Endonuclease I (NEB, Cat #M0302S). After the delivery of the CRISPR/Cas complex, cells were lysed in 100 μL of Phusion™ High-Fidelity DNA polymerase (NEB #M0530S) laboratory with additives. The cells were incubated for 15-30 minutes at 56° C., followed by deactivation for 5 minutes at 96° C. The plate was briefly centrifuged to collect the liquid at bottom of the wells. 50-μL PCR samples were set up for each sample to be analyzed. The PCR samples were heated to 95° C. for 10 minutes and then slowly (>15 minutes) cooled to room temperature. PCR product (-5 μL) was then separated on an agarose gel (2%) to confirm amplification. 15 μL of each reaction was incubated with T7E1 nuclease for 25 minutes at 37° C. […]

[10] = HeLa, Protocol B, 35 μM shuttle, 5 μM GFP-NLS, 10 seconds
[11] = Table 10.3a, Protocol B, HeLa, shuttle 50 μM, GFP-NLS 5 μM, 10 seconds

SMILES: CC[C@H](C)[C@H](NC(=O)[C@H](CCCCN)NC(=O)[C@H](CCCCN)NC(=O)[C@H](Cc1ccccc1)NC(=O)[C@H](CC(C)C)NC(=O)[C@H](CCCCN)NC(=O)[C@H](Cc1c[nH]c2ccccc12)NC(=O)[C@H](CCCCN)NC(=O)[C@H](Cc1c[nH]cn1)NC(=O)[C@H](Cc1c[nH]cn1)NC(=O)[C@H](Cc1c[nH]cn1)NC(=O)[C@H](Cc1c[nH]cn1)NC(=O)[C@H](Cc1c[nH]cn1)NC(=O)[C@@H](N)Cc1c[nH]cn1)C(=O)NCC(=O)N[C@@H](C)C(=O)N[C@H](C(=O)N[C@@H](CC(C)C)C(=O)N[C@@H](CCCCN)C(=O)N[C@H](C(=O)N[C@@H](CC(C)C)C(=O)N[C@H](C(=O)N[C@H](C(=O)NCC(=O)N[C@@H](Cc1ccc(O)cc1)C(=O)N[C@@H](C)C(=O)N[C@@H](CCCNC(=N)N)C(=O)N[C@@H](C)C(=O)N[C@@H](C)C(=O)N[C@@H](C)C(=O)N[C@@H](CCCNC(=N)N)C(=O)N[C@@H](CCC(N)=O)C(=O)N[C@@H](C)C(=O)N[C@@H](CCCNC(=N)N)C(=O)N[C@@H](C)C(=O)O)[C@@H](C)O)[C@@H](C)O)C(C)C)C(C)C [His-CM18-PTD4]
- Cell viability (%) (±St. Dev.; n = 3) [1, 10]: 94.6 ± 0.4%
- Mean % cells with GFP signal (±St. Dev.; n = 3) [1, 10]: 72.3 ± 5.3%
- Mean % cells with GFP signal (±St. Dev.; n = 3) ([1]; Table 9.1, Protocol A, HeLa, shuttle 10 μM, GFP-NLS 5 μM, 1 hour): 25.4 ± 3.6%
- Mean % cells with GFP signal (±St. Dev.; n = 3) ([1]; Table 9.1, Protocol B, HeLa, shuttle 35 μM, GFP-NLS 5 μM, 10 seconds): 78.3 ± 5.3%
- Mean % cells with GFP signal (±St. Dev.; n = 3) ([1]; Table 9.2, Protocol B, HeLa, shuttle 10 μM, GFP-NLS 5 μM, 10 seconds): 25.3 ± 3.6%
- Mean % cells with GFP signal (±St. Dev.; n = 3) ([1]; Table 9.2, Protocol B, HeLa, shuttle 25 μM, GFP-NLS 5 μM, 10 seconds): 62.1 ± 6.1%
- Mean % cells with GFP signal (±St. Dev.; n = 3) ([1]; Table 9.2, Protocol B, HeLa, shuttle 35 μM, GFP-NLS 5 μM, 10 seconds): 77.7 ± 7.8%
- Mean % cells with GFP signal (±St. Dev.; n = 3) ([1]; Table 9.2, Protocol B, HeLa, shuttle 50 μM, GFP-NLS 5 μM, 10 seconds): 73.2 ± 5.2%
- Mean % cells with GFP signal (±St. Dev.; n = 3) ([1]; Table 10.1, Protocol B, HeLa, shuttle 50 μM, GFP-NLS 5 μM, 10 seconds): 68 ± 2.2%
- Mean % cells with GFP signal (±St. Dev.; n = 3) ([1]; Table 10.2, Protocol B, HeLa, shuttle 10 μM, GFP-NLS 5 μM, incubation 1 min.): 50.6 ± 3.5%
- Mean % cells with GFP signal (±St. Dev.; n = 3) ([1]; Table 10.2, Protocol B, HeLa, shuttle 10 μM, GFP-NLS 5 μM, incubation 2 min.): 74 ± 3.3%
- Mean % cells with GFP signal (±St. Dev.; n = 3) ([1]; Table 10.2, Protocol B, HeLa, shuttle 10 μM, GFP-NLS 5 μM, incubation 5 min.): 82.7 ± 5.0%
- Relative fluorescence intensity (FL1-A) (n = 3) ([1]; HeLa, shuttle 10 μM, GFP-NLS 5 μM, incubation 1 min.): 524 151
- Relative fluorescence intensity (FL1-A) (n = 3) ([1]; HeLa, shuttle 10 μM, GFP-NLS 5 μM, incubation 2 min.): 755 624
- Relative fluorescence intensity (FL1-A) (n = 3) ([1]; HeLa, shuttle 10 μM, GFP-NLS 5 μM, incubation 5 min.): 173 930
- Cell viability (%) (±St. Dev.; n = 3) [1, 11]: 92 ± 3.6%
- Mean % cells with GFP signal (±St. Dev.; n = 3) [1, 11]: 68 ± 2.2%
- Mean % cells with GFP signal (±St Dev.; n = 3) ([1]; Table 10.3e, Protocol B, HeLa, shuttle 20 μM, GFP-NLS 5 μM, 1 minute): 60.3 ± 3.2%
- GFP-NLS transduction efficiency ([1]; peptide 20 μM, GFP-NLS 5 μM, 1 minute, Protocol B (Table 10.3e)): 60%
- GFP-NLS delivery (microscopy, in words) ([1]; shuttle 35 μM, GFP-NLS 5 μM, 10 seconds, Protocol B): successfully transduced and delivered to the nucleus and/or the cytosol
- time by which GFP-NLS is delivered to the nucleus ([1]; shuttle 50 μM, GFP-NLS 5 μM, exposed 10 seconds, Protocol B, microscopy): ≤ 2 min
- Cell viability (%) (±St. Dev.; n = 3) [2]: 73.6 ± 0.7%
- Mean % cells with GFP signal (±St. Dev.; n = 3) [2]: 30.7 ± 2.2%
- Cell viability (%) (±St. Dev.; n = 3) [3]: 95.3 ± 1.2%
- Mean % cells with GFP signal (±St. Dev.; n = 3) [3]: 55.3 ± 0.2%
- Cell viability (%) (±St. Dev.; n = 3) [4]: 23.5 ± 1.1%
- Mean % cells with GFP signal (±St. Dev.; n = 3) [4]: 25.6 ± 2.6%
- Cell viability (%) (±St. Dev.; n = 3) [5]: 98.4 ± 0.6%
- Mean % cells with GFP signal (±St. Dev.; n = 3) [5]: 40.2 ± 3.1%
- Cell viability (%) (±St. Dev.; n = 3) [6]: 3.3 ± 5.4%
- Mean % cells with GFP signal (±St. Dev.; n = 3) [6]: 35.4 ± 3.9%
- Cell viability (%) (±St. Dev.; n = 3) [7]: 92.8 ± 0.1%
- Mean % cells with GFP signal (±St. Dev.; n = 3) [7]: 53.7 ± 4.6%
- Mean % cells with GFP signal (±St. Dev.; n = 3) [8]: 0.04 ± 0.01%
- delivery of functional CRISPR/Cas9 complex, cleavage of genomic PPIB (in words) [9]: successfully deliver a functional CRISPR/Cas9 complex to the nucleus of HeLa cells

Reference: patent publication US12286632B2, “Rationally-designed synthetic peptide shuttle agents for delivering polypeptide cargos from an extracellular space to the cytosol and/or nucleus of a target eukaryotic cell, uses thereof, methods and kits relating to same” (Feldan Bio Inc., priority 2016, dated 2025)
